Laboratory results taken from US20040073973A1, “Plant enzyme and use thereof” (priority 1996, published 2004).

Assays:
Assay type in all cases: biochemical, Ulmus glabra
[1] = test system: Developing Elm Seed Soluble PLA2; assay: Effects of reduction, EGTA and heat on PLA2 activity; conditions: for sensitivity of PLA2 activities to reducing agents: purified soluble and microsomal PLA2s; for PLA2 Activity Released [^14C] fatty acids: control 4740 dpm
Method: (§1) Membrane associated PLA2 activity was assayed according to Stahl et al. (1995) using sn-1-palmitoyl-sn-2-[^14C]decanoyl-sn-glycerol-3-phosphocholine as substrate. In standard assays of the solubilized microsomal activity and of the soluble activity 1-palmitoyl-2-[[…]]palmitoyl-glycerol-sn-3-phosphocholine was used as substrate and was presented as mixed micelles with the non-ionic detergent lubrol PX, in a PC/detergent molar relation of 1:10. Samples, 0.5-10 μl, were assayed for PLA2 activity by incubation at 30° C. for 5-30 min with 5 nmol of ^14C-labelled phosphatidylcholine (10,000 dpm/nmol) in a total volume of 50 μl of 50 mM Tris/HCl, pH 8.0 containing 10 mM CaCl2 and 0.06% (w/v) lubrol PX. The reaction was stopped by the addition of 400 μl of chloroform/methanol/acetic acid 50:50:1 followed by 150 μl of H2O. The samples were mixed thoroughly and centrifuged 10,000 g for 1 min. Chloroform phases containing extracted lipids were passed through mini-columns of silica gel, followed by a wash with 400 μl of chloroform. The eluates from the silica columns, containing released [^14C]palmitic acid, were collected and analysed by scintillation counting.

microsomal PLA2 = assay: Substrate specificity of microsomal PLA2
Method: as §1

[2] = test system: soluble developing elm seed PLA2; assay: Position specificity of soluble PLA2 (partly purified fraction)
Method: as §1

| Structure (SMILES) | sensitivity of PLA2 activities to reducing agents [1] | Recovered ^14C activity in LPC (microsomal PLA2) | Recovered ^14C activity in PC (microsomal PLA2) | Recovered ^14C activity in fatty acid (microsomal PLA2) | also measured |
| --- | --- | --- | --- | --- | --- |
| O[C@H](CS)[C@H](O)CS (racemic) [DTT, dithiothreitol] | sensitive |  |  |  |  |
| O=C(O)CN(CCOCCOCCN(CC(=O)O)CC(=O)O)CC(=O)O [EGTA] |  |  |  |  | PLA2 Activity Released [^14C] fatty acids ([1]; EGTA 10 mM): 170 dpm |
| OCCS [Mercaptoethanol] | sensitive |  |  |  | PLA2 Activity Released [^14C] fatty acids ([1]; Mercaptoethanol 1% (v/v)): 170 dpm |
| CCCCCCCCCCCCCCCC(=O)OC[C@H](COP(=O)([O-])OCC[N+](C)(C)C)OC(=O)CCCCCCCCC [sn-1-16:0-sn-2-[^14C]10:0-PC, sn-1-palmitoyl-sn-2-[^14C]decanoyl-sn-glycerol-3-phosphocholine] |  | 0.6 % of total recovery | 54 % of total recovery | 44 % of total recovery |  |
| CCCCCCCCCCCCCCCC(=O)OC[C@H](COP(=O)([O-])OCC[N+](C)(C)C)OC(=O)CCCCCCCCCCCCCCC [sn-1-16:0-sn-2-[^14C]16:0-PC, sn-1-palmitoyl-sn-2-[^14C]palmitoyl-sn-glycerol-sn-3-phosphocholine] |  | 0.8 % of total recovery | 65 % of total recovery | 34 % of total recovery | Recovered ^14C activity in LPC [2]: 0.6 % of total recovery; Recovered ^14C activity in PC [2]: 56 % of total recovery; Recovered ^14C activity in fatty acid [2]: 44 % of total recovery |
